# Literature values in patent publication US8449906B2, “Effervescent compositions comprising phosphonates and methods related thereto” (EffRx Pharmaceuticals, S.A., priority 2002, dated 2013).
compound,measurement,value
COc1ccc2[nH]c([S+]([O-])Cc3ncc(C)c(OC)c3C)nc2c1 (stereo not shown) [omeprazole],pKa,about 3.9
